Patent US20150218654A1, “METHODS FOR PREDICTING MULTIPLE MYELOMA TREATMENT RESPONSE” (INSERM (INSTITUT NATIONAL DE LA SANTÉ ET DE LA RE- CHERCHE …, priority 2012, published 2015)
Read-outs that look alike come from different tables or passages of the source.

What was measured:
[1] = tested on: primary myeloma cells of patients (CD138+ viable plasma cells); experiment: Mononuclear cell culture of patients' tumor samples, count of viable CD138+ myeloma cells by flow cytometry; type: cell-based, human; details: primary MMCs of high DM Score patients (N=7) versus low DM Score patients (N=7), P<0.05
Protocol: Mononuclear cells from tumor samples of 12 patients with MM were cultured for 4 days in the presence of IL-6 (2 ng/ml) with or without graded decitabine concentrations. At day 4 of culture, the cell count and the viability were determined and the percentage of CD138^+ viable plasma cells was determined by flow cytometry. Black color represents patients with high DM Score (N=6) and white represents patients with low DM Score values (N=6).
Mononuclear cells from tumor samples of 14 patients with MM were cultured for 4 days in the presence of IL-6 (2 ng/ml) with or without graded 5-azacitidine concentrations. At day 4 of culture, the count of viable CD138′ MMCs was determined using flow cytometry. The black columns represent the mean±SD of primary myeloma cell counts (expressed as the percentage of the count without adding 5-azcytidine) of the 7 patients with a low DM Score and the white columns that of the 7 patients with a high DM Score.
Mononuclear cells from tumor samples of 12 patients with MM (agreement of the Center for Biological Resources of Montpellier University Hospital (N° DC-2008-417)) were cultured for 4 days at 2×10^5 cells/ml in RPMI 1640 medium, 10% FCS, 2 ng/ml IL-6, with or without graded concentrations of decitabine. In each culture group, viability and cell counts were assayed and MMCs were stained with an anti-CD138-PE mAb (Immunotech, Marseille, France) as previously described (32).
Primary myeloma cells of 14 patients were cultured with or without graded concentrations of 5-azacitidine and MMC cytotoxicity evaluated using anti-CD138-PE mAb (Immunotech, Marseille, France) as described (Jourdan, et al 1998; Mahtouk, et al 2004; Moreaux, et al 2012).

[2] = tested on: human myeloma cell lines (HMCLs); experiment: Growth assay for myeloma cells (Cell Titer Glo, 4 days, graded DNMTi concentrations); type: cell-based; details: for IC50: Homo sapiens, 5-azacitidine
Protocol: HMCLs were cultured for 4 days in 96-well flat-bottom microtiter plates in RPMI 1640 medium, 10% FCS, 2 ng/ml IL-6 culture medium (control), with graded decitabine concentrations. Data are mean values plus or minus standard deviation (SD) of 5 experiments determined on sextuplet culture wells.
HMCLs were cultured for 4 days in 96-well flat-bottom microtiter plates in RPMI 1640 medium, 10% FCS, 2 ng/ml IL-6 culture medium (control), and graded 5-azacitidine concentrations. Data are mean values plus or minus standard deviation (SD) of 5 experiments determined on sextuplet culture wells.
HMCLs were cultured for 4 days in 96-well flat-bottom microtiter plates in RPMI 1640 medium, 10% FCS, 2 ng/ml IL-6 culture medium (control), with graded decitabine concentrations. Cell growth was evaluated by quantifying intracellular ATP amount with a Cell Titer Glo Luminescent Assay (Promega, Madison, Wis.) with a Centro LB 960 luminometer (Berthold Technologies, Bad Wildbad, Germany).
The inventors sought to determine whether DM Score could predict for the sensitivity of 10 HMCLs to DNMT inhibitor. Starting from a large cohort of 40 HMCLs (22), the 10 HMCLs with the highest or lowest DM Score were selected to assay decitabine sensitivity.
HMCLs were cultured with graded 5-azacitidine (Sigma, St. Louis, Mo.) concentrations. HMCLs cell growth was quantified with a Cell Titer Glo Luminescent Assay (Promega, Madison, Wis.) and half inhibitory concentration (IC50) was determined using GraphPad Prism (http://www.graphpad.com/scientific-software/prism/).

IC50 ([2]; 6 HMCLs with high DM Score, read-out: IC50 range): 1.12 to 8.25 µM
IC50 ([2]; 6 HMCLs with high DM Score, read-out: median IC50): 2.43 µM
IC50 ([2]; 6 HMCLs with low DM Score, read-out: IC50 range): 5.73 to 27.9 µM
IC50 ([2]; 6 HMCLs with low DM Score, read-out: median IC50): 7.45 µM
SMILES: Nc1ncn([C@@H]2O[C@H](CO)[C@@H](O)[C@H]2O)c(=O)n1 [5-azacitidine, 5-Azacytidine]
fold higher 5-azacytidine sensitivity [1]: 1.6 fold
fold higher 5-azacitidine sensitivity ([2]; HMCLs with high DM Score versus low DM Score, P=0.01): 3 fold
